Measured values as given in the supplement of paper PMC10627819.

Experiments:
B. subtilis 168 [1] = assay: fitness (endpoint OD595 vs no drug) (fraction); higher = more growth
In short: (§1)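 Cultures at OD595 0.01 were dispensed into 384-well plates in TSB, LB Lennox or CY and incubated at 37 °C. Every 30 min for 14 h, OD595 was read and corrected by the first reading. Fitness is the optical density at entry into stationary phase relative to the robust mean of no-drug control wells, capped at 1.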

S. aureus DSM 20231 [2] = assay: as above
In short: as §1

S. aureus Newman [3] = assay: as above
In short: as §1

S. pneumoniae D39V [4] = assay: as above
In short: as §1

B. subtilis 168 [5] = assay: Bliss interaction score (quartile over a dose matrix) (fitness difference); higher = more antagonism (negative = synergy)
In short: (§2)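 Values were capped at 1 after dividing OD595 at stationary-phase entry by the plate's robust no-drug mean. This ratio is fitness, and single-drug fitness was inferred from the combination data. The Bliss score is observed minus product-expected fitness, given as quartiles over technical, biological and donor/recipient replicates.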

S. aureus DSM 20231 [6] = assay: as above
In short: as §2

S. aureus Newman [7] = assay: as above
In short: as §2

S. pneumoniae D39V [8] = assay: as above
In short: as §2
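For Bliss interaction score (quartile over a dose matrix) in this document: first quartile when negative (synergy) and third quartile when positive (antagonism).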

COc1cccc2c1C(=O)c1c(O)c3c(c(O)c1C2=O)C[C@@](O)(C(=O)CO)C[C@@H]3O[C@H]1C[C@H](N)[C@H](O)[C@H](C)O1 [Doxorubicin] + COc1ccc(C[C@H](N)C(=O)N[C@H]2[C@@H](O)[C@H](n3cnc4c(N(C)C)ncnc43)O[C@@H]2CO)cc1 [Puromycin]
fitness
Settings	first compound 0.25 µg/mL	first compound 0.5 µg/mL	first compound 0.625 µg/mL	first compound 1 µg/mL	first compound 1.25 µg/mL	first compound 2.5 µg/mL
B. subtilis 168 [1], partner 0.39 µg/mL	–	–	0.918	–	0.879	0.558
B. subtilis 168 [1], partner 0.78 µg/mL	–	–	0.987	–	0.925	0.45
B. subtilis 168 [1], partner 1.56 µg/mL	–	–	0.925	–	0.89	0.336
S. aureus DSM 20231 [2], partner 0.39 µg/mL	–	–	0.912	–	0.869	0.803
S. aureus DSM 20231 [2], partner 0.78 µg/mL	–	–	0.889	–	0.954	0.783
S. aureus DSM 20231 [2], partner 1.56 µg/mL	–	–	0.874	–	0.858	0.733
S. aureus Newman [3], partner 0.39 µg/mL	–	–	0.84	–	0.763	0.699
S. aureus Newman [3], partner 0.78 µg/mL	–	–	0.801	–	0.767	0.68
S. aureus Newman [3], partner 1.56 µg/mL	–	–	0.84	–	0.725	0.678
S. pneumoniae D39V [4], partner 1 µg/mL	0.998	≥ 1	–	0.882	–	–
S. pneumoniae D39V [4], partner 2 µg/mL	0.926	0.914	–	0.874	–	–
S. pneumoniae D39V [4], partner 4 µg/mL	0.54	0.567	–	0.399	–	–

fitness, S. aureus DSM 20231 [2], one replicate
Settings	first compound 0.625 µg/mL	first compound 1.25 µg/mL	first compound 2.5 µg/mL
partner 3.12 µg/mL	0.91	0.821	0.776
partner 6.24 µg/mL	0.801	0.679	0.59

Settings	Bliss interaction score
B. subtilis 168 [5]	-0.059
S. aureus DSM 20231 [6]	-0.0672
S. aureus Newman [7]	-0.0786
S. pneumoniae D39V [8]	0.0661

COc1cccc2c1C(=O)c1c(O)c3c(c(O)c1C2=O)C[C@@](O)(C(=O)CO)C[C@@H]3O[C@H]1C[C@H](N)[C@H](O)[C@H](C)O1 [Doxorubicin] + C[C@@H]1O[C@@H]1P(=O)(O)O [Fosfomycin]
Settings	fitness
B. subtilis 168 [1], first compound 0.625 µg/mL, partner 1.562 µg/mL	0.7
B. subtilis 168 [1], first compound 0.625 µg/mL, partner 3.124 µg/mL	0.605
B. subtilis 168 [1], first compound 0.625 µg/mL, partner 6.248 µg/mL	0.412
B. subtilis 168 [1], first compound 1.25 µg/mL, partner 1.562 µg/mL	0.655
B. subtilis 168 [1], first compound 1.25 µg/mL, partner 3.124 µg/mL	0.518
B. subtilis 168 [1], first compound 1.25 µg/mL, partner 6.248 µg/mL	0.302
B. subtilis 168 [1], first compound 2.5 µg/mL, partner 1.562 µg/mL	0.369
B. subtilis 168 [1], first compound 2.5 µg/mL, partner 6.248 µg/mL	0.0432
S. aureus DSM 20231 [2], first compound 0.625 µg/mL, partner 0.781 µg/mL	0.685
S. aureus DSM 20231 [2], first compound 0.625 µg/mL, partner 1.562 µg/mL	0.587
S. aureus DSM 20231 [2], first compound 0.625 µg/mL, partner 3.124 µg/mL	0.5
S. aureus DSM 20231 [2], first compound 1.25 µg/mL, partner 0.781 µg/mL	0.681
S. aureus DSM 20231 [2], first compound 1.25 µg/mL, partner 1.562 µg/mL	0.603
S. aureus DSM 20231 [2], first compound 1.25 µg/mL, partner 3.124 µg/mL	0.493
S. aureus DSM 20231 [2], first compound 2.5 µg/mL, partner 0.781 µg/mL	0.637
S. aureus DSM 20231 [2], first compound 2.5 µg/mL, partner 1.562 µg/mL	0.506
S. aureus DSM 20231 [2], first compound 2.5 µg/mL, partner 3.124 µg/mL	0.449
S. aureus Newman [3], first compound 0.625 µg/mL, partner 0.781 µg/mL	0.615
S. aureus Newman [3], first compound 0.625 µg/mL, partner 1.562 µg/mL	0.547
S. aureus Newman [3], first compound 0.625 µg/mL, partner 3.124 µg/mL	0.212
S. aureus Newman [3], first compound 1.25 µg/mL, partner 0.781 µg/mL	0.618
S. aureus Newman [3], first compound 1.25 µg/mL, partner 1.562 µg/mL	0.535
S. aureus Newman [3], first compound 1.25 µg/mL, partner 3.124 µg/mL	0.138
S. aureus Newman [3], first compound 2.5 µg/mL, partner 0.781 µg/mL	0.595
S. aureus Newman [3], first compound 2.5 µg/mL, partner 1.562 µg/mL	0.443
S. aureus Newman [3], first compound 2.5 µg/mL, partner 3.124 µg/mL	0.0485
S. pneumoniae D39V [4], first compound 0.25 µg/mL, partner 1.25 µg/mL	0.881
S. pneumoniae D39V [4], first compound 0.25 µg/mL, partner 2.5 µg/mL	0.852
S. pneumoniae D39V [4], first compound 0.25 µg/mL, partner 5 µg/mL	0.635
S. pneumoniae D39V [4], first compound 0.5 µg/mL, partner 1.25 µg/mL	0.938
S. pneumoniae D39V [4], first compound 0.5 µg/mL, partner 2.5 µg/mL	0.859
S. pneumoniae D39V [4], first compound 0.5 µg/mL, partner 5 µg/mL	0.646
S. pneumoniae D39V [4], first compound 1 µg/mL, partner 1.25 µg/mL	0.861
S. pneumoniae D39V [4], first compound 1 µg/mL, partner 2.5 µg/mL	0.823
S. pneumoniae D39V [4], first compound 1 µg/mL, partner 5 µg/mL	0.669

Settings	Bliss interaction score
B. subtilis 168 [5]	-0.142
S. aureus DSM 20231 [6]	0.0338
S. aureus Newman [7]	0.122
S. pneumoniae D39V [8]	-0.0488
